Assay [1] has as its target T1, 5-lipoxygenase (Homo sapiens, UniProt P09917).
T1 construct: Human PMN's (5 x 10⁶ cells/0.5 mL) in pH 7.2 phosphate buffer; endogenous in cells; host or cells: human polymorphonuclear leukocytes (PMN)
T1 sequence (P09917 1-674): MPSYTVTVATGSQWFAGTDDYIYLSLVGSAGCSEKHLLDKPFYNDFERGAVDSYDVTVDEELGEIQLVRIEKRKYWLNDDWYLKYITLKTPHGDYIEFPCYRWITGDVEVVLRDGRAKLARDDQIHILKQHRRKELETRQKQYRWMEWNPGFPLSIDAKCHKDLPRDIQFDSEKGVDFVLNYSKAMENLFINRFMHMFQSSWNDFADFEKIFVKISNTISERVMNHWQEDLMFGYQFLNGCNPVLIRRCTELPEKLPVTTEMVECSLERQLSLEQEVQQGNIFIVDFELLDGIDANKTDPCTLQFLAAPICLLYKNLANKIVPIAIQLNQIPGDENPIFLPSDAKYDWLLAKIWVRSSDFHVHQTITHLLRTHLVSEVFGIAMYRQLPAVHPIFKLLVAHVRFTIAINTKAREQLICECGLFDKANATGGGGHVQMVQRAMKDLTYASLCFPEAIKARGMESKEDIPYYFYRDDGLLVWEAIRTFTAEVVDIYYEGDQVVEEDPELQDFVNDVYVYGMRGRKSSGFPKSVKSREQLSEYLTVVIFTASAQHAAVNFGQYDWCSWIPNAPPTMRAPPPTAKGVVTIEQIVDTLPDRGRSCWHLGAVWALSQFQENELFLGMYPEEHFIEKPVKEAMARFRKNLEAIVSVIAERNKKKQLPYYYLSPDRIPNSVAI
Put plainly: Inhibition of 5-lipoxygenase (5-HETE biosynthesis) in human polymorphonuclear leukocytes. The conditions noted are these: human PMN's, 5-HETE band vs control; test concentration 1 microM; read-out: Inhibition of 5-LO % at 1 M. The class given is cell-based. How it is done: Inhibition of 5-Lipoxygenase in Human Polymorphonuclear Leukocytes (PMN's)
The inhibition of 5-lipoxygenase is measured by determining whether and to what extent test compounds inhibit the amount of 5-HETE biosynthesized by human PMN's. 5-HETE biosynthesis serves as a marker for arachidonic acid metabolism by 5-lipoxygenase.
Human PMN's (5 x 10⁶ cells/0.5 mL) in pH 7.2 phosphate buffer containing Ca²⁺ (0.6 mM) and Mg²⁺ (1.0 mM) were incubated with test compound for 15 minutes at 37°C with shaking. Calcium ionophore A23187 (0.25 mM, 0.01 mL) and [¹⁴C] arachidonic acid (0.10 microCi in 0.025 mL 0.01N NaOH) were added, and the mixture incubated another 2.5 minutes. The reaction was terminated by the addition of 0.025 mL of 1.0 N HCl. The mixture was then extracted with ethyl acetate-methylene chloride (2:3) supplemented with 12 microgram/mL cold arachidonic acid to reduce degradation of the metabolites. After concentrating the organic phase, the number of microlitres containing 5 x 10⁴ cpm was determined and that volume applied to a silica gel plate. The plate was developed in methylene-chloride-methanol-acetic acid-water (90:8:1:0.8), air dried, and counted on a Berthold linear TLC analyzer. The integrated area of the 5-HETE band was determined and compared with the control (no drug).
In cases where the IC₅₀ was determined, the result is shown in microM.

For assay [2], the system named is 5-lipoxygenase. Put plainly: Inhibition of antigen-induced, late phase inflammatory cell infiltration in guinea pigs. To be noted: 60 minutes before antigen challenge, lung lavage four hours after challenge. In kind it is in vivo. From the text: Inhibition of Antigen-Induced, Late Phase Inflammatory Cell Infiltration in Guinea Pigs
This model is used to measure the ability of a drug to inhibit 5-lipoxygenase in vivo. In addition to SRS-A, a chemotactic substance LTB₄ is also released by cells in the sensitized guinea pig lung upon stimulation by antigen. As a result there is a measurable influx of cells into the lung. Therefore, an inhibitor of 5-lipoxygenase could reduce the formation of LTB₄ and thereby reduce the cell influx into the lung.
Male outbred Hartley strain albino guinea pigs (250-300 grams) were sensitized to ovalbumin as in the procedure for inhibition of antigen-induced, SRS-A mediated bronchioconstriction in conscious guinea pigs.
Sensitized guinea pigs were fasted and pretreated with pyrilamine and indomethacin as in bronchioconstriction testing procedure. Test compounds, suspended in 1% acacia, were administered 60 minutes before antigen challenge. […] Whole lung lavage was performed with three 5 mL aliquots of normal saline buffered with sodium bicarbonate.
Total cell counts were performed on a Coulter Counter, and differential cell counts were performed. Compounds were evaluated for their ability to alter the antigen-induced total cell influx and, more specifically, neutrophil (PMN) influx.

In assay [3] the test system is A23187-Induced LTB₄ Generation. Put plainly: Ex vivo inhibition of A23187-induced LTB4 generation in squirrel monkey blood. Set-up: species or system Squirrel Monkeys. To be noted: Primates. The protocol: Ex Vivo Inhibition of A23187-Induced LTB₄ Generation in Squirrel Monkeys.
Incubation of squirrel monkey whole blood with calcium ionophore A23187 stimulates the production of LTB₄. This LTB₄ production can be inhibited by a lipoxygenase inhibitor in vitro by incubating the blood with the inhibitor prior to A23187 challenge. By dosing squirrel monkeys with a lipoxygenase inhibitor prior to withdrawal of a blood sample, one can determine the ability of the lipoxygenase inhibitor to be absorbed into the bloodstream by measuring the inhibition of A23187 induced LTB₄ production ex vivo.
Squirrel monkeys (400-650g) were fasted for 18 hours, anesthetized and dosed either orally or intraperitoneally with test compound. After the desired time period, blood was withdrawn from the femoral vein. The blood (0.5 mL) was heparinized, preincubated at 37°C for 5 minutes and stimulated with A23187 in DMSO to give a final concentration of 30 microM. The reaction was terminated with EGTA (final concentration 10 microM), and the blood centrifuged. Levels of LTB₄ in the plasma were then determined by radioimmunoassay.
The results shown in Table 4 illustrate the ability of a prodrug of type 2a or 2b to be absorbed after ip or po dosing compared to the parent compound 1a.

Setting [4] is: 1 h, 30 mg/kg ip, 60 min after dosing, vehicle per footnotes 2-4, read-out: Percent Inh. Monkey 2.
Setting [5] is: 1 h, 30 mg/kg ip, 60 min after dosing, vehicle per footnotes 2-4, read-out: Percent Inh. Monkey 3.
Setting [6] is: 1 h, 30 mg/kg ip, 60 min after dosing, vehicle per footnotes 2-4, read-out: Percent Inh. Monkey #1.
[7] abbreviates: 1 h, 30 mg/kg po, 60 min after dosing, vehicle per footnotes 2-4, read-out: Percent Inh. Monkey 2.
Where [8] appears, read: 1 h, 30 mg/kg po, 60 min after dosing, vehicle per footnotes 2-4, read-out: Percent Inh. Monkey #1.

The structures appear in SMILES notation. Where a name gives a salt, the structure may show the parent alone. Read-outs that look alike come from different tables or passages of the source.

Take `CCc1cc(C=Cc2cccnc2)cc(CC)c1O` [Compound 1aa]: on 5-lipoxygenase [1], the inhibition at 1 µM was found to be 59%.

As for `C=CCc1cc(C=Cc2cccnc2)cc(C)c1O` [Compound 1ac], on 5-lipoxygenase [1], the inhibition at 1 µM was determined as 61%.

On to `COc1ccc(C=Cc2cc(C(C)C)c(O)c(C(C)C)c2)cc1` [Compound 1av], for which, at 5-lipoxygenase [1], the inhibition at 1 µM was found to be 71%.

In the case of `COc1ccc(C=Cc2cc(C(C)C)c(O)c(C(C)C)c2)cc1OC` [Compound 1aw], on 5-lipoxygenase [1], the inhibition at 1 µM worked out at 57%.

For `CC(C)c1cc(C=Cc2ccc(F)cc2)cc(C(C)C)c1O` [Compound 1ax], the inhibition at 1 µM on 5-lipoxygenase [1] was 32%.

Consider `CC(C)c1cc(C=Cc2cccc(C(F)(F)F)c2)cc(C(C)C)c1O` [Compound 1ay], for which the inhibition at 1 µM at 5-lipoxygenase [1] turned out to be 34%.

As to `COc1ccc(C=Cc2cc(F)c(O)c(OC)c2)cc1` [Compound 1az], at 5-lipoxygenase [1], the inhibition at 1 µM is 63%.

For `Cc1cc(C=Cc2ccc(Cl)s2)cc(C)c1O` [Compound 1b], the inhibition at 1 µM on 5-lipoxygenase [1] came to 77%.

As for `Cc1ccc(C=Cc2cc(C)c(O)c(C)c2)s1` [Compound 1c], at 5-lipoxygenase [1], the inhibition at 1 µM came out at 62%.

In the case of `COc1cc(C=Cc2ccc(Cl)s2)cc(C)c1O` [Compound 1g], the inhibition at 1 µM on 5-lipoxygenase [1] is 76%.

Take `C=CCc1cc(C=Cc2cccs2)cc(C)c1O` [Compound 1h]: the inhibition at 1 µM on 5-lipoxygenase [1] stood at 70%. In addition, in the assay on 5-lipoxygenase [2] (10 mg/kg ip), the “% Inh. PMN” value is on record as 46% and the “% Inh. Total Cells” value is given as 55%.

Regarding `CCc1cc(C=Cc2cccs2)cc(CC)c1O` [Compound 1i, 2,6-Diethyl-4-[2-(2-thienyl)ethenyl]phenol], the inhibition at 1 µM on 5-lipoxygenase [1] was found to be 70%. Moreover, in the assay with 5-lipoxygenase [2] (30 mg/kg ip), the “% Inh. PMN” value was 74% and the “% Inh. Total Cells” value came to 51%. In the assay on 5-lipoxygenase [2] (30 mg/kg po), the “% Inh. PMN” value is listed as 51% and the “% Inh. Total Cells” value is on record as 65%.

Turning to `CC(C)c1cc(C=Cc2cccs2)cc(C(C)C)c1O` [Compound 1j], the inhibition at 1 µM on 5-lipoxygenase [1] was found to be 78%.

`Cc1cc(C=Cc2cccs2)cc(F)c1O` [Compound 1k]: the inhibition at 1 µM on 5-lipoxygenase [1] was 65%.

In the case of `Cc1cc(C=Cc2cccs2)cc(Cl)c1O` [Compound 1l], on 5-lipoxygenase [1], the inhibition at 1 µM was 84%.

Take `COc1cc(C=Cc2cccs2)cc(F)c1O` [Compound 1m]: on 5-lipoxygenase [1], the inhibition at 1 µM amounted to 65%.

For the compound `COc1cc(C=Cc2cccs2)cc(OC)c1O` [Compound 1n], at 5-lipoxygenase [1], the inhibition at 1 µM is 78%.

Regarding `COc1cc(C=Cc2ccsc2)cc(C)c1O` [Compound 1p], the inhibition at 1 µM at 5-lipoxygenase [1] stood at 70%.

Turning to `COc1cc(C=Cc2ccsc2)cc(OC)c1O` [Compound 1q], at 5-lipoxygenase [1], the inhibition at 1 µM is 77%.

For the compound `CCc1cc(C=Cc2ccsc2)cc(OC)c1O` [Compound 1r], the inhibition at 1 µM at 5-lipoxygenase [1] is 82%.

For the compound `Cc1cc(C=Cc2ccsc2)cc(Cl)c1O` [Compound 1s], the inhibition at 1 µM on 5-lipoxygenase [1] was 75%.

Turning to `COc1cc(C=Cc2ccsc2)cc(F)c1O` [Compound 1t], the inhibition at 1 µM at 5-lipoxygenase [1] is 59%.

As for `CCc1cc(C=Cc2ccsc2)cc(CC)c1O` [Compound 1u], the inhibition at 1 µM at 5-lipoxygenase [1] came to 66%.

Consider `C=CCc1cc(C=Cc2ccsc2)cc(C)c1O` [Compound 1v], for which the inhibition at 1 µM on 5-lipoxygenase [1] turned out to be 75%.

With `Cc1cc(C=Cc2ccccn2)cc(C)c1O` [Compound 1w], on 5-lipoxygenase [1], the inhibition at 1 µM was 77%.

On to `Cc1cc(C=Cc2ccncc2)cc(C)c1O` [Compound 1y], for which, at 5-lipoxygenase [1], the inhibition at 1 µM was found to be 46%.

Consider `COc1cc(C=Cc2cccnc2)cc(C)c1O` [Compound 1z], for which, on 5-lipoxygenase [1], the inhibition at 1 µM was 52%.

Take `Cc1cc(C=Cc2cccs2)cc(C)c1OC(=O)CCC(=O)O` [Compound 2a, 2,6-Dimethyl-4-[2-(2-thienyl)ethenyl]phenyl succinate]: the “% Inh. PMN” value in the assay with 5-lipoxygenase [2] (10 mg/kg po) was 93%. For the same compound, the “% Inh. Total Cells” value with 5-lipoxygenase [2] (10 mg/kg po) stood at 89%. For the same compound, the inhibition at 30 mg/kg worked out at 83% in assay [3] (setting [4]); 89% in assay [3] (setting [5]); 62% in assay [3] (setting [6]); 71% in assay [3] (setting [7]); 66% in assay [3] (1 h, 30 mg/kg po, 60 min after dosing, vehicle per footnotes 2-4, read-out: Percent Inh. Monkey 3); 50% in assay [3] (setting [8]). Also, the inhibition at 30 mg/kg is 100% in assay [3] (2 h, 30 mg/kg po, 120 min after dosing, dissolved in dilute alkali, read-out: Percent Inh. Monkey 2); 61% in assay [3] (2 h, 30 mg/kg po, 120 min after dosing, dissolved in dilute alkali, read-out: Percent Inh. Monkey 3); 41% in assay [3] (2 h, 30 mg/kg po, 120 min after dosing, dissolved in dilute alkali, read-out: Percent Inh. Monkey #1); 65% in assay [3] (4 h, 30 mg/kg po, 240 min after dosing, dissolved in dilute alkali, read-out: Percent Inh. Monkey 2); 100% in assay [3] (4 h, 30 mg/kg po, 240 min after dosing, dissolved in dilute alkali, read-out: Percent Inh. Monkey 3); 43% in assay [3] (4 h, 30 mg/kg po, 240 min after dosing, dissolved in dilute alkali, read-out: Percent Inh. Monkey #1).

In the case of `Cc1cc(C=Cc2cccs2)cc(C)c1OC(=O)CN` [Compound 2b, 2,6-Dimethyl-4-[2-(2-thienyl)ethenyl]phenyl glycinate hydrochloride], the inhibition at 30 mg/kg in assay [3] (1 h, 24 mg/kg instead of 30 mg/kg po, 60 min after dosing, dissolved in distilled water, read-out: Percent Inh. Monkey 3) was determined as 33%; in assay [3] (setting [4]), 56%; in assay [3] (setting [5]), 69%; in assay [3] (setting [6]) it was 78%; in assay [3] (setting [7]), 54%; in assay [3] (setting [8]) it was 62%.

Values taken from patent publication EP0334119A1, “Compounds for inhibiting the biosynthesis of lipoxygenase-derived metabolites of arachidonic acid” (BOEHRINGER INGELHEIM PHARMACEUTICALS INC., priority 1988, dated 1989).
